Consider 22 molecules from the RepoRT retention time repository.

Where a name gives a salt, the structure may show the parent alone.

The nature of the data set: RP, Phenomenex Kinetex C18, 100 × 2.1 mm, 1.7 µm, 40 °C, 0.5 mL/min, estimated dead time 0.44 min; A: water + 1 mM ammonium fluoride; B: acetonitrile; gradient (min/%B) 0/10 2/10 22/100 27/100 27.1/10. To be noted: stereoisomer not certain.
Regarding `CC(CCC(=O)O)C1CCC2C3CCC4CC(O)CCC4(C)C3CCC12C` (configuration not stated) [Lithocholic acid], the LC retention time is 13.1 min.
With `CC(CCC(=O)O)C1CCC2C3C(=O)CC4CC(O)CCC4(C)C3CCC12C` (configuration not stated) [Nutriacholic Acid] the figure was 9.67 min; with `CC(CCCC(C)C1CCC2=C3CCC4CC(=O)CCC4(C)C3CCC21C)C(=O)O` [(25S)-d8(14)-Dafachronic acid], 15.9 min; with `CC(CCCC(C)C1CCC2=C3C=CC4=CC(=O)CCC4(C)C3CCC21C)C(=O)O` [(25S)-d4,6,8(14)-Dafachronic acid], 14.3 min.
Take `CC(CCC(=O)O)C1CCC2C3C(O)CC4CC(O)CCC4(C)C3CC(=O)C12C` (configuration not stated) [12-Ketochenodeoxycholic acid]: the LC retention time is 7.88 min.
With `C[C@H](CCC(=O)O)[C@H]1CC[C@H]2[C@@H]3CC[C@@H]4CC(=O)CC[C@]4(C)[C@H]3CC[C@]12C` [3-Oxo-5beta-cholanoic Acid] the figure was 13.4 min; with `CC(CC(=O)O)C1CCC2C3CCC4CC(O)CCC4(C)C3CC(O)C12C` (configuration not stated) [Nor-Desoxycholic Acid], 9.58 min; with `CC(CCC(=O)NCC(=O)O)C1CCC2C3C(O)CC4CC(O)CCC4(C)C3CC(O)C12C` (configuration not stated) [Glycocholic acid], 6.87 min.
With `CCCCCCCCCCCCCCCCCCCC(=O)O` [Arachidic acid] the figure was 20.3 min.
In the case of `CC(CCCC(C)C1CCC2C3C(O)CC4=CC(=O)CCC4(C)C3CCC12C)C(=O)O` (configuration not stated) [7-Hydroxy-3-oxo-Cholest-4-en-26-oic Acid], the LC retention time was 12 min.
Regarding `CC(CCCC(C)C1CCC2C3CCC4=CC(=O)C=CC4(C)C3CCC12C)C(=O)O` [(25S)-d1,4-Dafachronic acid], the LC retention time is 14.5 min.
Consider `CC(CCC(=O)NCC(=O)O)C1CCC2C3CC(O)C4CC(O)CCC4(C)C3CCC12C` (configuration not stated) [Glycohyodeoxycholic Acid], for which the LC retention time is 6.88 min.
Regarding `CC(CCCC(C)C1CCC2C3=CCC4CC(=O)C=CC4(C)C3CCC21C)C(=O)O` [(25S)-d1,7-Dafachronic acid], the LC retention time was 14.4 min.
In the case of `CC(CCC(=O)O)C1CCC2C3C(=O)CC4CC(=O)CCC4(C)C3CC(=O)C12C` (configuration not stated) [Dehydrocholic acid], the LC retention time was 7.14 min.
The result for `CC(CCCC(C)C1CCC2C3CCC4CC(=O)C=CC4(C)C3CCC12C)C(=O)O` [(25S)-d1-Dafachronic acid] reads 15.9 min; that for `CC(CCC(=O)NCCS(=O)(=O)O)C1CCC2C3CCC4CC(O)CCC4(C)C3CC(O)C12C` (configuration not stated) [Taurodeoxycholic acid], 8.04 min; that for `CC(CCC(=O)NCCS(=O)(=O)O)C1CCC2C3CCC4CC(O)CCC4(C)C3CCC12C` (configuration not stated) [Taurolithocholic acid], 9.12 min.
With `CC(CCC(=O)NCC(=O)O)C1CCC2C3CCC4CC(O)CCC4(C)C3CCC12C` (configuration not stated) [Glycolithocholic Acid sodium salt], the LC retention time was 9.22 min.
Consider `CC(CCC(=O)NCC(=O)O)C1CCC2C3CCC4CC(O)CCC4(C)C3CC(O)C12C` (configuration not stated) [Glycodeoxycholic acid], for which the LC retention time was 7.98 min.
On to `CCCCCCCCCC(=O)O` [Decanoic acid], for which the LC retention time was 10.3 min.
On to `CC(CCC(=O)NCC(=O)O)C1CCC2C3C(=O)CC4CC(=O)CCC4(C)C3CC(=O)C12C` (configuration not stated) [Glycodehydrocholic acid], for which the LC retention time was 5.21 min.
For the molecule `CC(CCC(=O)NCCS(=O)(=O)O)C1CCC2C3C(O)CC4CC(O)CCC4(C)C3CC(O)C12C` (configuration not stated) [Taurocholic acid], the LC retention time was 6.97 min.
